Reference: patent publication US20230149337A1, “OPHTHALMIC FORMULATION AND ITS USE” (OY FINNSUSP AB, priority 2020, published 2023)
In brackets after ≈: the same amount, converted by molar mass. Like-named read-outs stand apart in the source and are kept apart here.

Tests used:
[1] = Langmuir trough: surface pressure isotherms and BAM of pure films; format: physicochemical; conditions: pure film under compression
Protocol: The interactions of the microemulsion formulation SIME02A explained in Example 2 with a tear film lipid layer (TFLL) component were studied in a Langmuir trough model system. A naturally occurring lipid 20 (oleoyloxy)icosanoic acid (20-OAHFA) which represents the O-acyl-ω-hydroxy fatty acids in the TFLL was selected as a model lipid and synthesized as described in Bland et al. Langmuir 2019, 35, 3545-3552. The experiments were performed on a KSV NIMA Large trough equipped with a surface pressure balance with a platinum Wilhelmy plate, a KSV SPOT surface potential meter and KSV NIMA microBAM Brewster angle microscope (BAM), all from Biolin Scientific (Stockholm, Sweden). The Langmuir trough system was enclosed in a plastic hood with an inlet supply of dry and ozone-depleted air (Ozone solutions ODS-3P, Hull, Iow. USA) to prevent oxidation of lipids.
The Langmuir trough was filled with phosphate-buffered saline (PBS) as a subphase maintained at 35±1° C. to emulate the aqueous layer of the tear film. The model lipid 20-OAHFA or pure sacha inchi (SI) seed oil was dissolved in chloroform and spread on the surface of the PBS subphase. Chloroform was allowed to evaporate for 5 min. […] The lipid film was compressed and expanded in the trough with two Delrin barriers at a rate of 13 mm/min while the surface pressure and surface potential were measured. […]

[2] = Solubility of dexamethasone in microemulsion formulations; format: physicochemical; conditions: for solubility: aqueous with cosolvent or surfactant or cyclodextrin, equilibrium from dmso stock, room temperature, 8-9 days, read-out: Solubility of DXM
Protocol: The solubility of dexamethasone (DXM) in the microemulsion formulations was studied. To formulations containing 0.1%, 0.5%, 1%, or 5% of the sacha inchi seed oil, DXM ([…] stock in dimethyl sulfoxide, DMSO) was added at concentrations of […] in triplicate. […] The test vials were incubated at room temperature with continuous shaking (90 rpm) for 8-9 days until equilibrium. After incubation, the samples were mixed 1:1 with acetonitrile for 10 min and centrifuged (13,000 rpm, 10 min), followed by immediate HPLC analysis of the supernatant for DXM concentration. HPLC analysis was performed with Agilent 1100 series HPLC system and Eclipse XDB-C18 column (1.8 μm, 4.6×50 mm; Agilent) maintained at 60° C. Isocratic elution of the 5-μl sample injected was performed with 65% Eluent A (1% TFA in Milli-Q water) and 35% Eluent B (0.1% TFA in acetonitrile) at flow rate 1 ml/min and UV detection at 240 nm.

Surface pressure of transition to a solid monolayer [1] [mN/m]	Solubility of DXM relative to PBS ([2]; 1% oil concentration in the formulation) [times]	solubility ([2]; microemulsion formulation with 5% sacha inchi seed oil, microemulsion with 5% oil) [µg/mL]	Solubility of DXM relative to PBS ([2]; microemulsion with 5% oil)	Solubility of DXM relative to PBS ([2]; microemulsions with lower oil concentrations)	solubility ([2]; phosphate-buffered saline (PBS), PBS alone) [µg/mL]	SMILES
2.5	–	–	–	–	–	CCCCCCCC/C=C\CCCCCCCC(=O)OCCCCCCCCCCCCCCCCCCCC(=O)O [20-OAHFA, 20 (oleoyloxy)icosanoic acid]
–	2.5	~3700 (≈ 9.43 mM)	about 15 times	at the same level as in PBS	~250 (≈ 0.637 mM)	C[C@@H]1C[C@H]2[C@@H]3CCC4=CC(=O)C=C[C@]4(C)[C@@]3(F)[C@@H](O)C[C@]2(C)[C@@]1(O)C(=O)CO [DXM, Dexamethasone]
